Results from patent EP4678638A1, “NEW E3 UBIQUITIN LIGASE LIGAND, PROTEIN DEGRADATION AGENT AND USE THEREOF” (priority 2023, dated 2024).

Experiments:
Assay type in all cases: cell-based
Conditions in all cases: Table D16
IKZF1 = biological target: T1, IKZF1 (Homo sapiens, UniProt Q13422+Q96SW2); assay: Western blot degradation of IKZF1 (hPBMC)
T1 construct: evaluate the effects of the compounds of the present disclosure on the expression of target proteins in cells; endogenous in cells; host or cells: hPBMC
Protocol: (§1) Conventional Western blot assay was performed to evaluate the effects of the compounds of the present disclosure on the expression of target proteins in cells.
(§2) (1) Cell Seeding and Protein Harvesting: The selected cells were processed according to the cell seeding procedure and protein harvesting procedure in Table III-2. Table III-2 Cell Seeding and Protein Harvesting Procedures
(§3) (2) To the collected supernatant, 5X SDS sample loading buffer was added, followed by denaturation at 95°C for 5 minutes. The denatured samples were then separated by SDS-PAGE electrophoresis on a polyacrylamide gel. Proteins were transferred to a nitrocellulose membrane (0.45 µm NC membrane), blocked with blocking buffer at room temperature for 1 hour, and subjected to antibody incubation and development procedures according to the antibody manufacturer's instructions (Cell Signaling Technology).
(§4) Half-Maximal Degradation Concentration value (the drug concentration required for degrading proteins by 50%, abbreviated as DC50) reads method: comparing the grayscale values of Western blot bands from drug-treated samples with those from blank DMSO-treated controls, and identifying the drug concentration range at which the grayscale value is half that of the DMSO-treated control bands.
(§5) DC50 values can be calculated using ImageJ software to measure grayscale values of Western blot bands from drug-treated samples. The concentration-response curve is fitted to estimate the drug concentration corresponding to half the grayscale value.
(§6) Target protein remaining (%) refers to the percentage of target protein remaining in hPBMC cells after treatment with protein degrader compounds.
(§7) Calculation method for target protein remaining (%): Use ImageJ software to measure grayscale values of Western blot bands from drug (protein degrader)-treated samples. The grayscale value of drug-treated bands is divided by that of internal control protein bands, and the resulting quotient is normalized to obtain the relative percentage of remaining target protein after protein degrader treatment.
(§8) Target protein degradation rate (%) = 100% - target protein remaining (%).

WEE1 = biological target: T2, WEE1 (Homo sapiens, UniProt P30291+Q96SW2); assay: Western blot degradation of WEE1 (hPBMC)
T2 construct: evaluate the effects of the compounds of the present disclosure on the expression of target proteins in cells; endogenous in cells; host or cells: hPBMC
Protocol: as §1, §2, §3, §4, §5, §6, §7, §8

GSPT1 = biological target: T3, GSPT1 (Homo sapiens, UniProt P15170+Q96SW2); assay: Western blot degradation of GSPT1 (hPBMC)
T3 construct: evaluate the effects of the compounds of the present disclosure on the expression of target proteins in cells; endogenous in cells; host or cells: hPBMC
Protocol: as §1, §2, §3, §4, §5, §6, §7, §8

CK1a = biological target: T4, CK1a (Homo sapiens, UniProt P48729+Q96SW2); assay: Western blot degradation of CK1a (hPBMC)
T4 construct: evaluate the effects of the compounds of the present disclosure on the expression of target proteins in cells; endogenous in cells; host or cells: hPBMC
Protocol: as §1, §2, §3, §4, §5, §6, §7, §8

IKZF3 = biological target: T5, IKZF3 (Homo sapiens, UniProt Q96SW2+Q9UKT9); assay: Western blot degradation of IKZF3 (hPBMC)
T5 construct: evaluate the effects of the compounds of the present disclosure on the expression of target proteins in cells; endogenous in cells; host or cells: hPBMC
Protocol: as §1, §2, §3, §4, §5, §6, §7, §8

IKZF2 = biological target: T6, IKZF2 (Homo sapiens, UniProt Q96SW2+Q9UKS7); assay: Western blot degradation of IKZF2 (hPBMC)
T6 construct: evaluate the effects of the compounds of the present disclosure on the expression of target proteins in cells; endogenous in cells; host or cells: hPBMC
Protocol: as §1, §2, §3, §4, §5, §6, §7, §8

T6 sequence (Q9UKS7 whole entry): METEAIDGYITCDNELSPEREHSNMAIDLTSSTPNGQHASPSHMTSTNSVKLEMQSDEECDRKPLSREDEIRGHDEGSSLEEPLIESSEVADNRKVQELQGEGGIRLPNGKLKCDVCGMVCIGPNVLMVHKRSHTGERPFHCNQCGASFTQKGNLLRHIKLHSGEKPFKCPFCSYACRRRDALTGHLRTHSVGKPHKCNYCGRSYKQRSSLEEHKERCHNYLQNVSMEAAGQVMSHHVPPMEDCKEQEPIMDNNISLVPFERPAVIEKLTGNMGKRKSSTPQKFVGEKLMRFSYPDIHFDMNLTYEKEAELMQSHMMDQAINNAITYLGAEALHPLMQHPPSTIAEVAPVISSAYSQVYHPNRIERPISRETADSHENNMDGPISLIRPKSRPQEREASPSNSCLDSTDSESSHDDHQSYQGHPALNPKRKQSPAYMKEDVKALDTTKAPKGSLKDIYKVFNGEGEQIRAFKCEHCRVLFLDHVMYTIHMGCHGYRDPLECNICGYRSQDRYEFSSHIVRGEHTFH
T6 sequence (Q96SW2 whole entry): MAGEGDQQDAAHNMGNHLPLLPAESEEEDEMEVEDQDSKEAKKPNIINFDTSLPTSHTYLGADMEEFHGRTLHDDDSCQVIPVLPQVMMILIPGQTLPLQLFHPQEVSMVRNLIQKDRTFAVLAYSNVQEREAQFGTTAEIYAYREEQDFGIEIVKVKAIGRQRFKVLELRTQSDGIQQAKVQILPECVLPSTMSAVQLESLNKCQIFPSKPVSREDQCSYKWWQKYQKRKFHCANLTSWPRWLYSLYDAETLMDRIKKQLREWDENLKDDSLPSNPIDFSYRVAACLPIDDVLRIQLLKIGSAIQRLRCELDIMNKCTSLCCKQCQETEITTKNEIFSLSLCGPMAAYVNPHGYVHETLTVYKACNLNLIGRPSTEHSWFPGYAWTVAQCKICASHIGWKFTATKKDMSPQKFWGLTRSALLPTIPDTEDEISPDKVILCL
T6 sequence (Q16531 whole entry partner): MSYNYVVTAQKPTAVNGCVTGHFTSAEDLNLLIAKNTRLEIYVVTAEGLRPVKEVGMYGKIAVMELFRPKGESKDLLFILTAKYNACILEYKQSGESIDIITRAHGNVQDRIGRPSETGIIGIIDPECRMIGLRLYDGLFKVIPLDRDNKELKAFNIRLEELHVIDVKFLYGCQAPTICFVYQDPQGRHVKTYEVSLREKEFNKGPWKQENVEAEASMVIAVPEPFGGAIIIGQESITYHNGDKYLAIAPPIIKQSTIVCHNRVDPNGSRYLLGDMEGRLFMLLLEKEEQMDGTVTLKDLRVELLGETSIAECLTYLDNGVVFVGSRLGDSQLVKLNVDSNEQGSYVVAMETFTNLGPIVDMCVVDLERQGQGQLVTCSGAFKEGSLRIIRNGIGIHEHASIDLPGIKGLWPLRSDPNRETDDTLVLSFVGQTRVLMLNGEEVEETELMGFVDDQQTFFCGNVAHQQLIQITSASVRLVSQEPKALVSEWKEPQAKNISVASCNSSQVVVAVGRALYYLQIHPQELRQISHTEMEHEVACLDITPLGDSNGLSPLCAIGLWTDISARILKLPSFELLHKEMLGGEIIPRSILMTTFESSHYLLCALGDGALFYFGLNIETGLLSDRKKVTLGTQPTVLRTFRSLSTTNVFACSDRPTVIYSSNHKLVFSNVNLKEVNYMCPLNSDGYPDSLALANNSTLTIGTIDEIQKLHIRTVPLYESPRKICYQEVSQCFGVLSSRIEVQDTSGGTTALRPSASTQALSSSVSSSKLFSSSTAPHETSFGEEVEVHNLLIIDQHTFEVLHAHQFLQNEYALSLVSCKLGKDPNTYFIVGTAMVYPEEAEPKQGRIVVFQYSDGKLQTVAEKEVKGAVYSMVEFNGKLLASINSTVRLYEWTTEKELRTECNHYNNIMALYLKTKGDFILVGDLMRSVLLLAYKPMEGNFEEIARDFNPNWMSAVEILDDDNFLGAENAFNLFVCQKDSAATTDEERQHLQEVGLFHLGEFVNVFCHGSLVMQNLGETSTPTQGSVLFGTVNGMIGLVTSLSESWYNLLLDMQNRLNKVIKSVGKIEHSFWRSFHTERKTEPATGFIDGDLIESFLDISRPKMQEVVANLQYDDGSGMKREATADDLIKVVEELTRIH
T2 sequence (P30291 whole entry): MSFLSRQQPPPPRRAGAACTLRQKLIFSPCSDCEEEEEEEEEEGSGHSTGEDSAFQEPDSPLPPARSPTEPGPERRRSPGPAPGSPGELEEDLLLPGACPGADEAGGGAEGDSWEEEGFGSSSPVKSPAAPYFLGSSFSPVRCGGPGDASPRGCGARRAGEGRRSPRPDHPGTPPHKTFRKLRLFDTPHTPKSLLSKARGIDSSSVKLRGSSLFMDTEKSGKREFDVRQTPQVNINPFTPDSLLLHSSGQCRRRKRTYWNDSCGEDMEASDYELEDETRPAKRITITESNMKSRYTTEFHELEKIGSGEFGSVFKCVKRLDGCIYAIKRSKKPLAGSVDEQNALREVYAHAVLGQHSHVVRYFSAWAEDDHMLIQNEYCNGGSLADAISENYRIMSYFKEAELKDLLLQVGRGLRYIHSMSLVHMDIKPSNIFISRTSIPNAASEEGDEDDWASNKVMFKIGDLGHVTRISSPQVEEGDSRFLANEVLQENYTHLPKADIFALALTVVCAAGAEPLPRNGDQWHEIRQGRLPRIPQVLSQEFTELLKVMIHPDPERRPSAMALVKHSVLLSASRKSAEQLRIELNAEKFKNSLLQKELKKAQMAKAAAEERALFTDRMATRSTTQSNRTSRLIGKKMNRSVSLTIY
T2 sequence (Q96SW2 whole entry): as the sequence (Q96SW2 whole entry) above
T2 sequence (Q16531 whole entry partner): as the sequence (Q16531 whole entry partner) above
T1 sequence (Q13422 whole entry): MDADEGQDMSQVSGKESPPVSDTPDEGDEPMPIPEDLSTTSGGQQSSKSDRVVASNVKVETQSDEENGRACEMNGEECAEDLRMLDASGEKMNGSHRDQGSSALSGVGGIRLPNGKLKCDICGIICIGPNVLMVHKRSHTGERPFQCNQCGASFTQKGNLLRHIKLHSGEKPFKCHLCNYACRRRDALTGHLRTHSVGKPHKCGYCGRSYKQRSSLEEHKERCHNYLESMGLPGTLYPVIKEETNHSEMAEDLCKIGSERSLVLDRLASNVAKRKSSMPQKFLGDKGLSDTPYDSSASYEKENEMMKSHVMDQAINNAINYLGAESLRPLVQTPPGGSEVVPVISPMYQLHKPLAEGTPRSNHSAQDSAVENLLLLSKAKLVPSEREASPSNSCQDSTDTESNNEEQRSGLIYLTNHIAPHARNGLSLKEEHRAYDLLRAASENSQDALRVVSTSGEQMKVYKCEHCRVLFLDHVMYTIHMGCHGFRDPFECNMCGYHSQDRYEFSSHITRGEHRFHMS
T1 sequence (Q96SW2 whole entry): as the sequence (Q96SW2 whole entry) above
T1 sequence (Q16531 whole entry partner): as the sequence (Q16531 whole entry partner) above
T5 sequence (Q9UKT9 whole entry): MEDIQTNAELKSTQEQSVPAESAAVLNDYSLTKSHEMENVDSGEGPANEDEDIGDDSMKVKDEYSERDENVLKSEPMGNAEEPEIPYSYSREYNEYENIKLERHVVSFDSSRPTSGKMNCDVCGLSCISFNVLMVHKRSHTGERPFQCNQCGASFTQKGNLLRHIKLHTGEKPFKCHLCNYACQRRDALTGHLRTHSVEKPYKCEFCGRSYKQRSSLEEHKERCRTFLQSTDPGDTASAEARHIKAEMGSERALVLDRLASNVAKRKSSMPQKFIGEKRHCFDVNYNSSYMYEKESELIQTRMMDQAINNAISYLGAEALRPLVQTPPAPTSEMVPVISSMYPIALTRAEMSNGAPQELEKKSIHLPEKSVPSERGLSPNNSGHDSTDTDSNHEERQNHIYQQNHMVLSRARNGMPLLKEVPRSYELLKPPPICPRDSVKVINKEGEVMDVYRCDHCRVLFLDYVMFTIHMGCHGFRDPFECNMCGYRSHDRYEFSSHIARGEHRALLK
T5 sequence (Q96SW2 whole entry): as the sequence (Q96SW2 whole entry) above
T5 sequence (Q16531 whole entry partner): as the sequence (Q16531 whole entry partner) above
T4 sequence (P48729 whole entry): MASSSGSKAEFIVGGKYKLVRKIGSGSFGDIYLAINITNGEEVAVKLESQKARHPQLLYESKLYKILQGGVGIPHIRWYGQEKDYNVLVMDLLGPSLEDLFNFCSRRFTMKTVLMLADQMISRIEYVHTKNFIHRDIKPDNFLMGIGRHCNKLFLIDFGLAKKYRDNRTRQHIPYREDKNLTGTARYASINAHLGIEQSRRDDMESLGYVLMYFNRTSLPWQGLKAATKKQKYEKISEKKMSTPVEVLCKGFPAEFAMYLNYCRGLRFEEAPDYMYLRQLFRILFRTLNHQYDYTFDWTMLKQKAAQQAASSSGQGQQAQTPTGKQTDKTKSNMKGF
T4 sequence (Q96SW2 whole entry): as the sequence (Q96SW2 whole entry) above
T4 sequence (Q16531 whole entry partner): as the sequence (Q16531 whole entry partner) above

Compound | Degradation of substrate protein IKZF1 (substrate protein remaining %) (IKZF1) | Degradation of substrate protein WEE1 (substrate protein remaining %) (WEE1) | Degradation of substrate protein GSPT1 (substrate protein remaining %) (GSPT1) | Degradation of substrate protein CKla (substrate protein remaining %) (CK1a) | Degradation of substrate protein IKZF3 (substrate protein remaining %) (IKZF3) | Degradation of substrate protein IKZF2 (substrate protein remaining %) (IKZF2)
O=C1CCC(c2ccc(CO)cn2)C(=O)N1 (stereo not drawn) [GT-07075, 3-(5-(Hydroxymethyl)pyridin-2-yl)piperidine-2,6-dione] | B (B is defined as substrate protein remaining % > 80%) | B (B is defined as substrate protein remaining % > 80%) | A (A is defined as 0% ≤ substrate protein remaining % ≤ 80%) | B (B is defined as substrate protein remaining % > 80%) | A (A is defined as 0% ≤ substrate protein remaining % ≤ 80%) | A (A is defined as 0% ≤ substrate protein remaining % ≤ 80%)
O=C1CCC(Nc2ncccc2CO)C(=O)N1 (stereo not drawn) [GT-07197, 3-((3-(Hydroxymethyl)pyridin-2-yl)amino)piperidine-2,6-dione] | B (B is defined as substrate protein remaining % > 80%) | B (B is defined as substrate protein remaining % > 80%) | A (A is defined as 0% ≤ substrate protein remaining % ≤ 80%) | A (A is defined as 0% ≤ substrate protein remaining % ≤ 80%) | B (B is defined as substrate protein remaining % > 80%) | B (B is defined as substrate protein remaining % > 80%)
O=C1CCC(c2ncc(CO)cc2F)C(=O)N1 (stereo not drawn) [GT-07443, 3-(3-Fluoro-5-(hydroxymethyl)pyridin-2-yl)piperidine-2,6-dione] | A (A is defined as 0% ≤ substrate protein remaining % ≤ 80%) | A (A is defined as 0% ≤ substrate protein remaining % ≤ 80%) | A (A is defined as 0% ≤ substrate protein remaining % ≤ 80%) | A (A is defined as 0% ≤ substrate protein remaining % ≤ 80%) | B (B is defined as substrate protein remaining % > 80%) | A (A is defined as 0% ≤ substrate protein remaining % ≤ 80%)
O=C1CCC(c2cc(CO)c(F)cn2)C(=O)N1 (stereo not drawn) [GT-07444, 3-(5-Fluoro-4-(hydroxymethyl)pyridin-2-yl)piperidine-2,6-dione] | B (B is defined as substrate protein remaining % > 80%) | B (B is defined as substrate protein remaining % > 80%) | B (B is defined as substrate protein remaining % > 80%) | B (B is defined as substrate protein remaining % > 80%) | A (A is defined as 0% ≤ substrate protein remaining % ≤ 80%) | A (A is defined as 0% ≤ substrate protein remaining % ≤ 80%)
CC(C)(C)[Si](C)(C)OCc1cncc(NC2CCC(=O)NC2=O)c1 (stereo not drawn) [GT-07449, 3-((5-(((tert-Butyldimethylsilyl)oxy)methyl)pyridin-3-yl)amino)piperidine-2,6-dione] | B (B is defined as substrate protein remaining % > 80%) | B (B is defined as substrate protein remaining % > 80%) | B (B is defined as substrate protein remaining % > 80%) | B (B is defined as substrate protein remaining % > 80%) | B (B is defined as substrate protein remaining % > 80%) | A (A is defined as 0% ≤ substrate protein remaining % ≤ 80%)
O=C1CCN(c2cnc(F)c(CO)c2)C(=O)N1 [GT-07556, 1-(6-Fluoro-5-(hydroxymethyl)pyridin-3-yl)dihydropyrimidine-2,4(1H,3H)-dione] | A (A is defined as 0% ≤ substrate protein remaining % ≤ 80%) | A (A is defined as 0% ≤ substrate protein remaining % ≤ 80%) | B (B is defined as substrate protein remaining % > 80%) | A (A is defined as 0% ≤ substrate protein remaining % ≤ 80%) | A (A is defined as 0% ≤ substrate protein remaining % ≤ 80%) | B (B is defined as substrate protein remaining % > 80%)
O=C1CCC(c2ccc(CO)nc2F)C(=O)N1 (stereo not drawn) [GT-07558, 3-(2-Fluoro-6-(hydroxymethyl)pyridin-3-yl)piperidine-2,6-dione] | A (A is defined as 0% ≤ substrate protein remaining % ≤ 80%) | A (A is defined as 0% ≤ substrate protein remaining % ≤ 80%) | B (B is defined as substrate protein remaining % > 80%) | A (A is defined as 0% ≤ substrate protein remaining % ≤ 80%) | B (B is defined as substrate protein remaining % > 80%) | B (B is defined as substrate protein remaining % > 80%)
O=C1CCC(Nc2cnccc2CO)C(=O)N1 (stereo not drawn) [GT-07559, 3-((4-(Hydroxymethyl)pyridin-3-yl)amino)piperidine-2,6-dione] | A (A is defined as 0% ≤ substrate protein remaining % ≤ 80%) | A (A is defined as 0% ≤ substrate protein remaining % ≤ 80%) | A (A is defined as 0% ≤ substrate protein remaining % ≤ 80%) | A (A is defined as 0% ≤ substrate protein remaining % ≤ 80%) | A (A is defined as 0% ≤ substrate protein remaining % ≤ 80%) | A (A is defined as 0% ≤ substrate protein remaining % ≤ 80%)
O=C1CCN(c2cncc(CO)n2)C(=O)N1 [GT-07632, 1-(6-(Hydroxymethyl)pyrazin-2-yl)dihydropyrimidine-2,4(1H,3H)-dione] | A (A is defined as 0% ≤ substrate protein remaining % ≤ 80%) | A (A is defined as 0% ≤ substrate protein remaining % ≤ 80%) | B (B is defined as substrate protein remaining % > 80%) | A (A is defined as 0% ≤ substrate protein remaining % ≤ 80%) | A (A is defined as 0% ≤ substrate protein remaining % ≤ 80%) | A (A is defined as 0% ≤ substrate protein remaining % ≤ 80%)
O=C1CCN(c2cnc(CO)cn2)C(=O)N1 [GT-07634, 1-(5-(Hydroxymethyl)pyrazin-2-yl)dihydropyrimidine-2,4(1H,3H)-dione] | A (A is defined as 0% ≤ substrate protein remaining % ≤ 80%) | A (A is defined as 0% ≤ substrate protein remaining % ≤ 80%) | B (B is defined as substrate protein remaining % > 80%) | A (A is defined as 0% ≤ substrate protein remaining % ≤ 80%) | A (A is defined as 0% ≤ substrate protein remaining % ≤ 80%) | A (A is defined as 0% ≤ substrate protein remaining % ≤ 80%)
